From publication PMC4864240, “Biotype Characterization, Developmental Profiling, Insecticide Response and Binding Property of Bemisia tabaci Chemosensory Proteins: Role of CSP in Insect Defense” (PLoS ONE, 2016)
Where two headings read alike, the source gives them in different places.

Columns and labels:
Test in all cases: biochemical
Assay type in all cases: binding
BtabCSP1 = target: T1, BtabCSP1 (Bemisia tabaci, UniProt D6N3A3); conditions: for IC50: displacement of 1-NPN, read-out: IC50, BtabCSP1
T1 sequence (D6N3A3 20-126): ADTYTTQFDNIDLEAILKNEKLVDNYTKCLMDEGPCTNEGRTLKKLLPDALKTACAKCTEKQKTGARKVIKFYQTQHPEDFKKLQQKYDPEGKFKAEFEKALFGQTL
Method: (§1) Protein-ligand binding affinity was determined for the three recombinant proteins. Emission fluorescence spectra were recorded on a Jasco FP-6500 Series fluorescence spectrofluorometer. […] Fluorescence was measured using an exciting wavelength of 337 nm. Emission spectrum was recorded between 350 and 500 nm.

BtabCSP2 = target: T2, BtabCSP2 (Bemisia tabaci, UniProt H6UKS9)
T2 sequence (H6UKS9 22-131): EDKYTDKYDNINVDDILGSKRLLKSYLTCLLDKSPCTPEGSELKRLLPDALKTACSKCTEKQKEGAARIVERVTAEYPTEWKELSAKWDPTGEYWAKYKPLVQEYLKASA
Method: as §1

BtabCSP3 = target: T3, BtabCSP3 (Bemisia tabaci, UniProt A0A097GUB5)
T3 sequence (A0A097GUB5 21-138): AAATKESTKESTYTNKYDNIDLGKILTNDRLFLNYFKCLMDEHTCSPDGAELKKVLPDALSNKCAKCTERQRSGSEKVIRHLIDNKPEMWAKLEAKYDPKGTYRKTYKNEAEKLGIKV
Method: as §1

[1] = u.d. = binding constant not calculated, IC50>100 μM, read-out: BtabCSP1 Ki (u.d.)
[2] = u.d. = binding constant not calculated, IC50>100 μM, read-out: BtabCSP2 Ki (u.d.)
[3] = u.d. = binding constant not calculated, IC50>100 μM, read-out: BtabCSP3 Ki (u.d.)
[4] = competitive binding vs 1-NPN, three replicates ± SD, read-out: BtabCSP1 Ki

Compound | Ki (BtabCSP1; [1]) | Ki (BtabCSP2; [2]) | Ki (BtabCSP3; [3]) | further results
CCCCC(CC)CO (centres unmarked) [2-Ethyl-hexanol] | > 100 µM | > 100 µM | > 100 µM | 
CC1=CCC2C(C1)C2(C)C (centres unmarked) [3-Carene] | > 100 µM | > 100 µM | > 100 µM | 
CCCCCC=O [n-Hexaldehyde] | > 100 µM | > 100 µM | > 100 µM | 
Cc1cccc(C)c1 [m-Xylene] |  | > 100 µM | > 100 µM | Ki (BtabCSP1; [4]): 55.5 ± 3.14 µM; IC50 (BtabCSP1): 14.6 to 95.1 µM
C=CC(C)(O)CCC=C(C)C (centres unmarked) [Linalool] | > 100 µM | > 100 µM | > 100 µM | IC50 (BtabCSP1): 14.6 to 95.1 µM
CC(=O)c1ccc(C)cc1C [2, 4′-Dimethylacetophenone] |  |  |  | Ki (BtabCSP1; BtabCSP1 Ki (u.d.), u.d. = binding constant not calculated, IC50>100 μM): > 100 µM; Ki (BtabCSP2): > 100 µM; Ki (BtabCSP3): > 100 µM
C=CC(=C)CC/C=C(\C)CCC=C(C)C [E-β-Farnesene] | > 100 µM | > 100 µM | > 100 µM | 
CCCC(O)CC (centres unmarked) [3-Hexanol] | > 100 µM | > 100 µM | > 100 µM | 
CCCCCC [n-Hexane] |  |  |  | Ki (BtabCSP1; BtabCSP1 Ki (u.d.)): > 100 µM; Ki (BtabCSP2): > 100 µM; Ki (BtabCSP3): > 100 µM
CC1=CCC2CC1C2(C)C (stereo not drawn) [α-Pinene] | > 100 µM | > 100 µM | > 100 µM | 
CCCCCCCCCCC [n-Undecane] | > 100 µM | > 100 µM | > 100 µM | 
CCCCCCO [1-Hexanol] |  | > 100 µM | > 100 µM | Ki (BtabCSP1; [4]): 46.8 ± 1.37 µM; IC50 (BtabCSP1): 14.6 to 95.1 µM
CCCCCCCCCCCC=O [Dodecyl aldehyde] | > 100 µM | > 100 µM | > 100 µM | 
CCCCCOC(C)=O [Amyl acetate] | > 100 µM | > 100 µM | > 100 µM | 
C=CCc1ccc(O)c(OC)c1 [Eugenol] | > 100 µM | > 100 µM | > 100 µM | 
C=C1CC/C=C(\C)CC[C@@H]2[C@@H]1CC2(C)C [Caryopyllene] | > 100 µM | > 100 µM | > 100 µM | 
CCCCCCCC=O [Octanal] | > 100 µM | > 100 µM | > 100 µM | 
CC/C=C\CCO [Z3-Hexen-1-ol] | > 100 µM | > 100 µM | > 100 µM | 
CC1=CC=C(C(C)C)CC1 [α-Terpinene] | > 100 µM | > 100 µM | > 100 µM | IC50 (BtabCSP1): 14.6 to 95.1 µM
c1ccc(Nc2cccc3ccccc23)cc1 [1-NPN] |  |  |  | Kd (BtabCSP1; direct titration, Scatchard plot, read-out: binding constant of 1-NPN to CSP1): 11.7 µM; Kd (BtabCSP2; direct titration, Scatchard plot, read-out: binding constant of 1-NPN to CSP2): 20.8 µM; Kd (BtabCSP3; direct titration, Scatchard plot, read-out: binding constant of 1-NPN to CSP3): 15.3 µM
CCCCCCCO [1-Heptanol] | > 100 µM | > 100 µM | > 100 µM | 
CCCCCCCC(=O)O [Octanoic acid] | > 100 µM | > 100 µM | > 100 µM | IC50 (BtabCSP1): 14.6 to 95.1 µM
C=C(C)[C@H]1CC=C(C)CC1 [R(+)-Limonene] |  | > 100 µM | > 100 µM | Ki (BtabCSP1; [4]): 47.8 ± 1.56 µM
C=C1CCC2CC1C2(C)C (stereo not drawn) [β-Pinene] | > 100 µM | > 100 µM | > 100 µM | 
COC(=O)c1ccccc1O [Methyl salicylate] |  | > 100 µM | > 100 µM | Ki (BtabCSP1; [4]): 60 ± 2.74 µM; IC50 (BtabCSP1): 14.6 to 95.1 µM
CCC/C=C/CO [Trans-2-hexen-1-ol] |  | > 100 µM | > 100 µM | Ki (BtabCSP1; [4]): 46.1 ± 1.25 µM; IC50 (BtabCSP1): 14.6 to 95.1 µM
CCCCCCOC(C)=O [Hexyl acetate] | > 100 µM | > 100 µM | > 100 µM | 
CC1=CC[C@@H](C(C)(C)O)CC1 [α-Terpineol] | > 100 µM | > 100 µM | > 100 µM | IC50 (BtabCSP1): 14.6 to 95.1 µM
